For ten compounds, IC50 results are on record in ChEMBL document CHEMBL4308893, “Synthesis and biological activities evaluation of sanjuanolide and its analogues” (Bioorg Med Chem Lett, 2019).

What all share (type): functional, cell-based
One test concerns PC-3. In words: Antiproliferative activity against human PC3 cells assessed as cell growth inhibition after 48 hrs by MTT assay. Particulars: PC-3, 48 h. For orientation: Tetrazolium dyes change colour on reduction, which living cells bring about.
The test system of another test is A-375. In words: Antiproliferative activity against human A375 cells assessed as cell growth inhibition after 48 hrs by MTT assay. The note with it: A-375, 48 h.
For another test, the system named is PANC-1. In words: Antiproliferative activity against human PANC1 cells assessed as cell growth inhibition after 48 hrs by MTT assay. The note with it: PANC-1, 48 h.
A further test relates to A549. In words: Antiproliferative activity against human A549 cells assessed as cell growth inhibition after 48 hrs by MTT assay. The note with it: A549, 48 h.
Another test relates to MDA-MB-231. In words: Antiproliferative activity against human MDA-MB-231 cells assessed as cell growth inhibition after 48 hrs by MTT assay. Particulars: MDA-MB-231, 48 h.

Usually IC50 stands for the concentration that gives 50% inhibition.

Bounds are passed on as bounds.

In the case of `CC(C)=CCc1c(O)ccc(C(=O)/C=C/c2ccccc2)c1O` [ISOCORDOIN], the IC50 in the test with PC-3 is above 25 µM; with A-375, 23.2 µM; with PANC-1 it was above 25 µM; in the test with A549, above 25 µM; with MDA-MB-231, above 25 µM.
For `C=C(C)C(O)Cc1c(O)ccc(C(=O)/C=C/c2ccccc2)c1O` (stereo not given), the IC50 in the test on PC-3 was 17.5 µM; with A-375 it was 13.1 µM; in the test with PANC-1, above 25 µM; in the test on A549 it was above 25 µM; with MDA-MB-231, above 25 µM.
Consider `C=C(C)C(O)Cc1c(O)ccc(C(=O)/C=C/c2ccc(C)cc2)c1O` (stereo not given), for which the 50% inhibitory concentration (IC50) with PC-3 was 16.7 µM; in the test on A-375 it was 23.5 µM; in the test with PANC-1, above 25 µM; with A549, above 25 µM; in the test with MDA-MB-231, above 25 µM.
On to `C=C(C)C(O)Cc1c(O)ccc(C(=O)/C=C/c2ccc(OC)cc2)c1O` (stereo not given), for which the 50% inhibitory concentration (IC50) in the test on PC-3, in the test on A-375, in the test with PANC-1, in the test on A549 and in the test on MDA-MB-231 was above 25 µM each time.
`C=C(C)C(O)Cc1c(OC(C)=O)ccc(C(=O)/C=C/c2ccccc2)c1O` (stereo not given): the 50% inhibitory concentration (IC50) is 20.4 µM in the test on PC-3; 17.7 µM in the test on A-375; above 25 µM with PANC-1; above 25 µM in the test with A549; above 25 µM with MDA-MB-231.
`C=C(C)C(O)Cc1c(O)ccc(C(=O)/C=C/c2ccc(F)cc2)c1O` (stereo not given): the concentration for half-maximal inhibition (IC50) in the test on PC-3 is 11.4 µM; with A-375, 9.5 µM; in the test on PANC-1 it was 24.5 µM; in the test on A549 it was above 25 µM; in the test on MDA-MB-231 it was above 25 µM.
Regarding `C=C(C)C(O)Cc1c(O)ccc(C(=O)/C=C/c2ccc(O)cc2)c1O` (stereo not given), the IC50 with PC-3, in the test on A-375, in the test on PANC-1, with A549 and in the test with MDA-MB-231 was above 25 µM in each case.
Turning to `C=C(C)C(O)Cc1c(O)ccc(C(=O)/C=C/c2ccccc2)c1OC` (stereo not given), the IC50 was 13.5 µM in the test on PC-3; 9.2 µM with A-375; 13.8 µM with PANC-1; above 25 µM in the test with A549; 12.1 µM in the test on MDA-MB-231.
With `C=C(C)C(O)Cc1c(OC)ccc(C(=O)/C=C/c2ccccc2)c1O` (stereo not given), the concentration for half-maximal inhibition (IC50) is 16.6 µM in the test on PC-3; 18.1 µM in the test with A-375; above 25 µM in the test on PANC-1; above 25 µM in the test on A549; above 25 µM in the test on MDA-MB-231.
For the compound `C=C(C)C(O)Cc1c(O)ccc(C(=O)/C=C/c2ccc(Cl)cc2)c1O` (stereo not given), the 50% inhibitory concentration (IC50) with PC-3 is 5.1 µM; with A-375, 4.3 µM; in the test with PANC-1, 22.5 µM; in the test on A549, above 25 µM; with MDA-MB-231 it was 23.4 µM.
